Where two headings read alike, the source gives them in different places.
Key:
[1] = system: K562 (human chronic myelogenous leukemia) cells; experiment: Cell Titer Glo 2.0 cell viability assay; assay type: cell-based; settings: K562 cells, 72 hours, Cell Titer Glo 2.0, read-out: K562 GI50
Target C = experiment: RT-qPCR splicing assay panel, Target C canonical junction (CJ) mRNA; assay type: cell-based, human; settings: Homo sapiens; canonical junction qPCR panel, Table 5; read-out: Target C (decrease in CJ mRNA levels, IC50)
Outline: (§1)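 Canonical exon-exon junction transcript levels measured by one-step RT-qPCR of cell lysates, normalized to a housekeeping gene (GAPDH, GUSB or PPIA). Cells used were A673 or K562, exposed for 24 h to compound in 11-point, 3-fold series from 10 uM, with final DMSO at or below 0.25%.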

SMN2 mRNA = experiment: RT-qPCR splicing assay, SMN2 canonical junction (CJ) mRNA; assay type: cell-based, human; settings: Homo sapiens; canonical junction qPCR panel, Table 5; read-out: SMN2 (decrease in CJ mRNA levels, IC50)
Outline: as §1

HTT mRNA = experiment: RT-qPCR splicing assay, HTT canonical junction (CJ) and alternative junction (AJ) mRNA; assay type: cell-based, human; settings: Homo sapiens; for AC50: increase in HTT alternative junction (AJ) mRNA, read-out: HTT AJ AC50
Outline: (§2)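 Following a 24-hour incubation of A673 or K562 cells with serially diluted compound (3-fold steps, highest final 10 uM), the lysates undergo cDNA synthesis plus qPCR. Canonical and alternative junctions are each quantified against PPIA, GAPDH or GUSB.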

MYB mRNA = experiment: RT-qPCR splicing assay, MYB canonical junction (CJ) and alternative junction (AJ) mRNA; assay type: cell-based, human; settings: Homo sapiens; for AC50: increase in MYB alternative junction (AJ) mRNA, read-out: MYB AJ AC50
Outline: as §2

[2] = decrease in HTT canonical junction (CJ) mRNA, RT-qPCR, read-out: HTT CJ IC50
[3] = canonical junction qPCR panel, Table 5, read-out: HTT (decrease in CJ mRNA levels, IC50)
[4] = canonical junction qPCR panel, Table 5, read-out: MYB (decrease in CJ mRNA levels, IC50)
[5] = decrease in MYB canonical junction (CJ) mRNA, RT-qPCR, read-out: MYB CJ IC50

Cc1cn2cc(-c3ncc4c(=O)n([C@H]5CCNC(C)(C)C5)ccc4n3)cc(F)c2n1 [Compound 1497, 6-[(4S)-2,2-dimethyl-4-piperidyl]-2-(8-fluoro-2-methyl-imidazo[1,2-a]pyridin-6-yl)pyrido[4,3-d]pyrimidin-5-one]
1000 to 10000 nM: IC50 (Target C) | IC50 (HTT mRNA; [2])
100 to 1000 nM: GI50 ([1]; Homo sapiens, K562, 72 h) | AC50 (HTT mRNA; RT-qPCR) | IC50 (HTT mRNA; [3]) | IC50 (MYB mRNA; [4]) | IC50 (MYB mRNA; [5]) | AC50 (MYB mRNA; RT-qPCR)
< 100 nM: IC50 (SMN2 mRNA)

Cc1cn2cc(-c3ncc4c(=O)n([C@@H]5CCN[C@@H](C)C5)ccc4n3)cc(F)c2n1 [Compound 1498, 2-(8-fluoro-2-methyl-imidazo[1,2-a]pyridin-6-yl)-6-[(2S,4R)-2-methyl-4-piperidyl]pyrido[4,3-d]pyrimidin-5-one]
100 to 1000 nM: GI50 ([1]; Homo sapiens, K562, 72 h) | IC50 (MYB mRNA; [4]) | AC50 (MYB mRNA; RT-qPCR)
1000 to 10000 nM: IC50 (Target C) | IC50 (HTT mRNA; [2]) | AC50 (HTT mRNA; RT-qPCR) | IC50 (HTT mRNA; [3])
< 100 nM: IC50 (SMN2 mRNA) | IC50 (MYB mRNA; [5])

Cc1cn2nc(-c3ccc4c(=O)n(C5CCNCC5)ccc4n3)cc(C)c2n1 [Compound 1499, 2-(2,8-dimethylimidazo[1,2-b]pyridazin-6-yl)-6-(4-piperidyl)-1,6-naphthyridin-5-one]
< 100 nM: IC50 (SMN2 mRNA) | IC50 (HTT mRNA; [2]) | AC50 (HTT mRNA; RT-qPCR) | IC50 (HTT mRNA; [3]) | IC50 (MYB mRNA; [4]) | IC50 (MYB mRNA; [5]) | AC50 (MYB mRNA; RT-qPCR)
100 to 1000 nM: GI50 ([1]; Homo sapiens, K562, 72 h) | IC50 (Target C)

Cc1cn2cc(-c3ncc4c(=O)n([C@H]5CCN[C@@H](C)C5)ccc4n3)cc(F)c2n1 [Compound 1500, 2-(8-fluoro-2-methyl-imidazo[1,2-a]pyridin-6-yl)-6-[(2S,4S)-2-methyl-4-piperidyl]pyrido[4,3-d]pyrimidin-5-one]
100 to 1000 nM: GI50 ([1]; Homo sapiens, K562, 72 h) | IC50 (Target C) | IC50 (HTT mRNA; [2]) | AC50 (HTT mRNA; RT-qPCR) | IC50 (HTT mRNA; [3])
< 100 nM: IC50 (SMN2 mRNA) | IC50 (MYB mRNA; [4]) | IC50 (MYB mRNA; [5]) | AC50 (MYB mRNA; RT-qPCR)

Cc1cn2cc(-c3nc(C)c4c(=O)n([C@H]5CCN[C@@H](C)C5)ccc4n3)cc(F)c2n1 [Compound 1501, 2-(8-fluoro-2-methyl-imidazo[1,2-a]pyridin-6-yl)-4-methyl-6-[(2S,4S)-2-methyl-4-piperidyl]pyrido[4,3-d]pyrimidin-5-one]
< 100 nM: IC50 (SMN2 mRNA) | IC50 (MYB mRNA; [4]) | IC50 (MYB mRNA; [5]) | AC50 (MYB mRNA; RT-qPCR)
100 to 1000 nM: GI50 ([1]; Homo sapiens, K562, 72 h) | IC50 (Target C) | IC50 (HTT mRNA; [2]) | AC50 (HTT mRNA; RT-qPCR) | IC50 (HTT mRNA; [3])

Cc1cn2cc(-c3ccc4c(=O)n(C5C[C@H](C)N[C@@H](C)C5)ccc4n3)cc(F)c2n1 (stereo partly drawn) [Compound 1502, 6-[(2S,6S)-2,6-dimethyl-4-piperidyl]-2-(8-fluoro-2-methyl-imidazo[1,2-a]pyridin-6-yl)-1,6-naphthyridin-5-one]
< 100 nM: IC50 (SMN2 mRNA)
1000 to 10000 nM: IC50 (Target C) | IC50 (HTT mRNA; [2]) | AC50 (HTT mRNA; RT-qPCR) | IC50 (HTT mRNA; [3])
100 to 1000 nM: GI50 ([1]; Homo sapiens, K562, 72 h) | IC50 (MYB mRNA; [4]) | IC50 (MYB mRNA; [5]) | AC50 (MYB mRNA; RT-qPCR)

C[C@H]1C[C@@H](n2ccc3nc(-c4cc(F)c5nn(C)cc5c4)ncc3c2=O)CCN1 [Compound 1503, 2-(7-fluoro-2-methyl-indazol-5-yl)-6-[(2S,4S)-2-methyl-4-piperidyl]pyrido[4,3-d]pyrimidin-5-one]
100 to 1000 nM: GI50 ([1]; Homo sapiens, K562, 72 h) | IC50 (Target C) | IC50 (HTT mRNA; [2]) | AC50 (HTT mRNA; RT-qPCR) | IC50 (HTT mRNA; [3]) | IC50 (MYB mRNA; [4]) | AC50 (MYB mRNA; RT-qPCR)
< 100 nM: IC50 (SMN2 mRNA) | IC50 (MYB mRNA; [5])

Cc1cn2nc(-c3ccc4c(=O)n(C56CCC(N)(CC5)C6)ccc4n3)cc(C)c2n1 [Compound 1504, 6-(4-aminonorbornane-1-yl)-2-(2,8-dimethylimidazo[1,2-b]pyridazin-6-yl)-1,6-naphthyridin-5-one]
100 to 1000 nM: GI50 ([1]; Homo sapiens, K562, 72 h) | AC50 (HTT mRNA; RT-qPCR) | IC50 (HTT mRNA; [3])
1000 to 10000 nM: IC50 (Target C) | IC50 (HTT mRNA; [2])
< 100 nM: IC50 (SMN2 mRNA) | IC50 (MYB mRNA; [4]) | IC50 (MYB mRNA; [5]) | AC50 (MYB mRNA; RT-qPCR)

Cc1cn2nc(-c3ccc4c(=O)n([C@@H]5CCNC6(CCC6)C5)ccc4n3)cc(C)c2n1 [Compound 1517]
1000 to 10000 nM: GI50 ([1]; Homo sapiens, K562, 72 h) | IC50 (Target C)
100 to 1000 nM: IC50 (HTT mRNA; [2]) | AC50 (HTT mRNA; RT-qPCR) | IC50 (HTT mRNA; [3]) | IC50 (MYB mRNA; [4]) | IC50 (MYB mRNA; [5]) | AC50 (MYB mRNA; RT-qPCR)
< 100 nM: IC50 (SMN2 mRNA)

Cc1cn2nc(-c3ccc4c(=O)n([C@H]5CCNC6(CCC6)C5)ccc4n3)cc(C)c2n1 [Compound 1518]
100 to 1000 nM: GI50 ([1]; Homo sapiens, K562, 72 h) | IC50 (Target C) | IC50 (HTT mRNA; [2]) | AC50 (HTT mRNA; RT-qPCR) | IC50 (HTT mRNA; [3]) | IC50 (MYB mRNA; [4]) | AC50 (MYB mRNA; RT-qPCR)
< 100 nM: IC50 (SMN2 mRNA) | IC50 (MYB mRNA; [5])

Cc1c(O)c(-c2ccc3c(=O)n([C@H]4CCN[C@@H](C)C4)ccc3n2)cc2cn(C)nc12 [Compound 1520, 2-(6-hydroxy-2,7-dimethyl-indazol-5-yl)-6-[(2S,4S)-2-methyl-4-piperidyl]-1,6-naphthyridin-5-one]
< 100 nM: GI50 ([1]; Homo sapiens, K562, 72 h) | IC50 (SMN2 mRNA) | AC50 (HTT mRNA; RT-qPCR) | IC50 (HTT mRNA; [3]) | IC50 (MYB mRNA; [4]) | IC50 (MYB mRNA; [5]) | AC50 (MYB mRNA; RT-qPCR)
100 to 1000 nM: IC50 (Target C) | IC50 (HTT mRNA; [2])

Cc1c(O)c(-c2ncc3c(=O)n([C@H]4CC[C@H](N)C4)ccc3n2)cc2cn(C)nc12 [Compound 1521]
100 to 1000 nM: GI50 [1] | AC50 (HTT mRNA; RT-qPCR) | IC50 (HTT mRNA; [3]) | IC50 (MYB mRNA; [4]) | IC50 (MYB mRNA; [5]) | AC50 (MYB mRNA; RT-qPCR)
1000 to 10000 nM: IC50 (Target C) | IC50 (HTT mRNA; [2])
< 100 nM: IC50 (SMN2 mRNA)

CNC12CCC(n3ccc4nc(-c5cc6cn(C)nc6c(C)c5O)ccc4c3=O)(CC1)C2 [Compound 1522]
100 to 1000 nM: IC50 (Target C) | IC50 (HTT mRNA; [2]) | AC50 (HTT mRNA; RT-qPCR) | IC50 (HTT mRNA; [3])
< 100 nM: GI50 ([1]; Homo sapiens, K562, 72 h) | IC50 (SMN2 mRNA) | IC50 (MYB mRNA; [4]) | IC50 (MYB mRNA; [5]) | AC50 (MYB mRNA; RT-qPCR)

Cc1cn2cc(-c3nc(C)c4c(=O)n(C5C[C@H](C)N[C@@H](C)C5)ccc4n3)cc(F)c2n1 (stereo partly drawn) [Compound 1523]
< 100 nM: IC50 (SMN2 mRNA) | IC50 (MYB mRNA; [5])
1000 to 10000 nM: IC50 (Target C) | IC50 (HTT mRNA; [2])
100 to 1000 nM: GI50 ([1]; Homo sapiens, K562, 72 h) | AC50 (HTT mRNA; RT-qPCR) | IC50 (HTT mRNA; [3]) | IC50 (MYB mRNA; [4]) | AC50 (MYB mRNA; RT-qPCR)

Cc1cn2cc(-c3cc(C)c4c(=O)n(C5CCNCC5)ccc4n3)cc(F)c2n1 [Compound 1524, 2-(8-fluoro-2-methyl-imidazo[1,2-a]pyridin-6-yl)-4-methyl-6-(4-piperidyl)-1,6-naphthyridin-5-one]
< 100 nM: IC50 (SMN2 mRNA) | IC50 (MYB mRNA; [5])
100 to 1000 nM: GI50 ([1]; Homo sapiens, K562, 72 h) | IC50 (Target C) | IC50 (HTT mRNA; [2]) | AC50 (HTT mRNA; RT-qPCR) | IC50 (HTT mRNA; [3]) | IC50 (MYB mRNA; [4]) | AC50 (MYB mRNA; RT-qPCR)

Source: patent publication US20250332173A1, “COMPOUNDS AND METHODS FOR MODULATING NUCLEIC ACID SPLICING” (REMIX THERAPEUTICS INC., priority 2021, published 2025)
